Measurements: ChEMBL document CHEMBL3804825, “Synthesis, structure-activity relationships, and biological evaluation of a series of benzamides as potential multireceptor antipsychotics” (Bioorg Med Chem Lett, 2016)
Activity calls are given as the source filed them. The rule behind the calls is not given here.

Target: T1, Alpha-1A adrenergic receptor (Homo sapiens, UniProt P35348)
T1 sequence (P35348 whole entry): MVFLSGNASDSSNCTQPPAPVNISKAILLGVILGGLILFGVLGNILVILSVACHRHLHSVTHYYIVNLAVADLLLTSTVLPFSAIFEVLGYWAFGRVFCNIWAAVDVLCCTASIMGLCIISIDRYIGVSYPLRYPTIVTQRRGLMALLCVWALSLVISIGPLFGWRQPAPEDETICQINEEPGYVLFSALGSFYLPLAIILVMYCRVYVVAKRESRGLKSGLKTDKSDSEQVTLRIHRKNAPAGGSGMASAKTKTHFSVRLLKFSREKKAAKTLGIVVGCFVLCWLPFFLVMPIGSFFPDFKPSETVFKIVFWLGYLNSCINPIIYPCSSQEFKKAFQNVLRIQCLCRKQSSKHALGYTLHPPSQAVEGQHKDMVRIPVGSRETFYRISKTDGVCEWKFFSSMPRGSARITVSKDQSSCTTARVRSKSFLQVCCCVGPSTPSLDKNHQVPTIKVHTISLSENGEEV
Test: Antagonistic activity at alpha-1A adrenergic receptor (unknown origin) after 10 mins by FLIPR assay
Details: not given

| IC50 [nM] | SMILES |
| --- | --- |
| 35 | CNC(=O)c1cccc(OCCCCN2CCC(c3noc4cc(F)ccc34)CC2)c1 |
| 120 | CNC(=O)c1cc(OCCCCN2CCC(c3noc4cc(F)ccc34)CC2)ccc1F |

Target: Voltage-gated inwardly rectifying potassium channel KCNH2 (Homo sapiens, UniProt Q12809)
Sequence (Q12809 whole entry): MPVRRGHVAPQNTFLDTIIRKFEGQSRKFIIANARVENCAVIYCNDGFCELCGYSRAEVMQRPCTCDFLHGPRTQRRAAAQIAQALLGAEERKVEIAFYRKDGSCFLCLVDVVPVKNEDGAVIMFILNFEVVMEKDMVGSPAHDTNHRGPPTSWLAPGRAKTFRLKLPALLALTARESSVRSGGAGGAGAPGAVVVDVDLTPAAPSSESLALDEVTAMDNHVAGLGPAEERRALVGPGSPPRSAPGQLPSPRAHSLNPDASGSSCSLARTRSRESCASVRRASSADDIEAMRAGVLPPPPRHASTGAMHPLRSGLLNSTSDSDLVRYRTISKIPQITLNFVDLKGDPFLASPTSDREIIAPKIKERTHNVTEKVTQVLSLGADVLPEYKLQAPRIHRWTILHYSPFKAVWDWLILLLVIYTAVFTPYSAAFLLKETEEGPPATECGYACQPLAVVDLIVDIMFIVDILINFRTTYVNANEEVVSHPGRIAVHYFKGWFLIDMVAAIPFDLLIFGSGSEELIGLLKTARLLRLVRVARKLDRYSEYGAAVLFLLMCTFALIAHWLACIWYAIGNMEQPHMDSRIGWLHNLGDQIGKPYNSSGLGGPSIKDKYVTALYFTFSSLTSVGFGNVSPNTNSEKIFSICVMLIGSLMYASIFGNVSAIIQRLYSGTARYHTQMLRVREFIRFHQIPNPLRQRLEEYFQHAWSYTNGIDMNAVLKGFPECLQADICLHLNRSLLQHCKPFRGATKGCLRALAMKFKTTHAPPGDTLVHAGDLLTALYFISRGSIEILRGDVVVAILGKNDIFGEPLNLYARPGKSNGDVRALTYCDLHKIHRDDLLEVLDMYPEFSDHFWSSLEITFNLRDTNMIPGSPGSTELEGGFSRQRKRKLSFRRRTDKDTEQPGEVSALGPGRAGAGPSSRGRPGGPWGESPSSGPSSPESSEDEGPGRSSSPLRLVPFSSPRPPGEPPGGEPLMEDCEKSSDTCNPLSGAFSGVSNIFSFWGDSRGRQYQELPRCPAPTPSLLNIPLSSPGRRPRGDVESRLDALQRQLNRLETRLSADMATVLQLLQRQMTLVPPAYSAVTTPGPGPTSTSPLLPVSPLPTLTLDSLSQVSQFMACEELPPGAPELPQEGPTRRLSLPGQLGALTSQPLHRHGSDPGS
Test: not given
Details: not given

| SMILES | IC50 [nM] |
| --- | --- |
| CNC(=O)c1cccc(OCCCCN2CCC(c3noc4cc(F)ccc34)CC2)c1 | 1030 |

System: Mus musculus
Test: Antipsychotic activity in mouse assessed as inhibition of PCP-induced hyperactivity at 10 mg/kg, ip administered 45 mins prior testing measured after 60 mins
Type: functional, organism-based
Details: not given

| SMILES | inhibition |
| --- | --- |
| CNC(=O)c1cc(OCCCCN2CCN(c3cccc4sccc34)CC2)ccc1F | inactive |
| CNC(=O)c1cccc(OCCCCN2CCC(c3noc4cc(F)ccc34)CC2)c1 | Active |
| CNC(=O)c1cc(OCCCCN2CCN(c3nsc4ccccc34)CC2)ccc1F | inactive |
| CNC(=O)c1cc(OCCCCN2CCC(c3noc4cc(F)ccc34)CC2)ccc1F | Active |

Target: T2, 5-hydroxytryptamine receptor 2C (Homo sapiens, UniProt P28335)
T2 sequence (P28335 whole entry): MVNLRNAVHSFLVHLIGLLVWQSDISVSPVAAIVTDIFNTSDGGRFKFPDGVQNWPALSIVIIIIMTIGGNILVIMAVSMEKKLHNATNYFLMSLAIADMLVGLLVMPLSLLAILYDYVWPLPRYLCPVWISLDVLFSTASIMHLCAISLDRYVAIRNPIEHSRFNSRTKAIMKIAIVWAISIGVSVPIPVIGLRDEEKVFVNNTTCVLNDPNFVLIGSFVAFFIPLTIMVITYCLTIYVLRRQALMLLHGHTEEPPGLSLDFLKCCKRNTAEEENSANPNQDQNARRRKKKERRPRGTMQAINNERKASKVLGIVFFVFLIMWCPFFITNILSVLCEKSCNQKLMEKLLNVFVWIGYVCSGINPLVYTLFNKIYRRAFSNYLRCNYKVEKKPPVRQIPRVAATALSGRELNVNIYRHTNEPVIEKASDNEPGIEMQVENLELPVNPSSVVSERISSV
Test: Antagonistic activity at 5-HT2c receptor (unknown origin) after 10 mins by FLIPR assay
Details: not given

| IC50 [nM] | SMILES |
| --- | --- |
| 190 | CNC(=O)c1cccc(OCCCCN2CCC(c3noc4cc(F)ccc34)CC2)c1 |
| 270 | CNC(=O)c1cc(OCCCCN2CCC(c3noc4cc(F)ccc34)CC2)ccc1F |

Target: Histamine H1 receptor (Homo sapiens, UniProt P35367)
Sequence (P35367 whole entry): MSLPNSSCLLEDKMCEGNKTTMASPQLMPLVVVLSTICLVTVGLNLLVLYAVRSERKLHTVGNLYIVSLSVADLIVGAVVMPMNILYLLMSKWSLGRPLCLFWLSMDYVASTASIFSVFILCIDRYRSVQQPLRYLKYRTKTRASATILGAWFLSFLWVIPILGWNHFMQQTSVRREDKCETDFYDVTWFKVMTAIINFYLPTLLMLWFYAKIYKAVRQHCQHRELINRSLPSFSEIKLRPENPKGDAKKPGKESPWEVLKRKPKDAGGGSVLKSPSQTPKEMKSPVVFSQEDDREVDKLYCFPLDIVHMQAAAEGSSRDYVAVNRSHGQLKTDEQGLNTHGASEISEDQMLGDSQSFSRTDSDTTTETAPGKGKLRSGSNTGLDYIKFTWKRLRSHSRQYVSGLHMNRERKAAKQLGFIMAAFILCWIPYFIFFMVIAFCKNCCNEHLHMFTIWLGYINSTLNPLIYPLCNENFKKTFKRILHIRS
Test: Antagonistic activity at histamine1 receptor (unknown origin) after 10 mins by FLIPR assay
Details: not given

| IC50 [nM] | SMILES |
| --- | --- |
| 2560 | CNC(=O)c1cccc(OCCCCN2CCC(c3noc4cc(F)ccc34)CC2)c1 |
| 972 | CNC(=O)c1cc(OCCCCN2CCC(c3noc4cc(F)ccc34)CC2)ccc1F |

System: Mus musculus
Test: Antipsychotic activity in mouse assessed as inhibition of PCP-induced hyperactivity at 1 mg/kg, ip administered 45 mins prior testing measured after 60 mins
Type: functional, organism-based
Details: not given

| SMILES | inhibition |
| --- | --- |
| CNC(=O)c1cccc(OCCCCN2CCC(c3noc4cc(F)ccc34)CC2)c1 | Active |
| CNC(=O)c1cc(OCCCCN2CCC(c3noc4cc(F)ccc34)CC2)ccc1F | Active |

System: Mus musculus
Test: Antipsychotic activity in ig dosed mouse assessed as inhibition of PCP-induced hyperactivity
Type: functional
Details: not given

| SMILES | inhibition |
| --- | --- |
| CNC(=O)c1cccc(OCCCCN2CCC(c3noc4cc(F)ccc34)CC2)c1 | Dose-dependent effect |
| CNC(=O)c1cc(OCCCCN2CCC(c3noc4cc(F)ccc34)CC2)ccc1F | Dose-dependent effect |

Same assay, conditions: po

| SMILES | ED50 [mg/kg] |
| --- | --- |
| CNC(=O)c1cccc(OCCCCN2CCC(c3noc4cc(F)ccc34)CC2)c1 | 0.06 |
| CNC(=O)c1cc(OCCCCN2CCC(c3noc4cc(F)ccc34)CC2)ccc1F | 0.11 |

System: not listed separately
Test: Metabolic stability in human liver microsomes assessed as compound loss at 2 uM measured after 30 mins in presence of NADPH by LC-MS/MS analysis
Type: ADME
Details: read-out: Drug degradation

| metabolised at 0.5 h, 2 µM [%] | SMILES |
| --- | --- |
| 51 | CNC(=O)c1cc(OCCCCN2CCN(c3cccc4sccc34)CC2)ccc1F |
| 3 | CNC(=O)c1cccc(OCCCCN2CCC(c3noc4cc(F)ccc34)CC2)c1 |
| 47 | CNC(=O)c1cc(OCCCCN2CCN(c3nsc4ccccc34)CC2)ccc1F |
| 14 | CNC(=O)c1cc(OCCCCN2CCC(c3noc4cc(F)ccc34)CC2)ccc1F |

Target: 5-hydroxytryptamine receptor 2A (Homo sapiens, UniProt P28223)
Sequence (P28223 whole entry): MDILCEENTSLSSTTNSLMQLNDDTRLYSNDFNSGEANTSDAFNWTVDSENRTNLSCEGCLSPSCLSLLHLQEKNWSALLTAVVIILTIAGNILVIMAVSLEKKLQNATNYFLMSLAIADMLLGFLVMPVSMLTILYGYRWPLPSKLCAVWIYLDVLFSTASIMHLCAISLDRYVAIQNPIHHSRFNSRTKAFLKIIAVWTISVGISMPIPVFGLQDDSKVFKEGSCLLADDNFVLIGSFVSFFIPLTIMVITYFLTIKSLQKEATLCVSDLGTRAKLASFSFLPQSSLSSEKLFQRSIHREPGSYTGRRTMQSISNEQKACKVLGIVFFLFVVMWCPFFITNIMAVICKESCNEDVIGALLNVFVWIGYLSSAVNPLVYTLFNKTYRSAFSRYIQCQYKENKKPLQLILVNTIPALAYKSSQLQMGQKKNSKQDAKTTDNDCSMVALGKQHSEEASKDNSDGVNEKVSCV
Test: Antagonistic activity at human 5-HT2A receptor assessed as calcium flux after 10 mins by FLIPR assay
Type: functional
Details: not given

| IC50 [nM] | SMILES |
| --- | --- |
| 2200 | CNC(=O)c1ccccc1OCCCCN1CCN(c2cccc(Cl)c2Cl)CC1 |
| 820 | CNC(=O)c1ccc(OCCCCN2CCN(c3cccc(Cl)c3Cl)CC2)cc1 |
| 1100 | CCCCCNC(=O)c1cccc(OCCCCN2CCN(c3cccc(Cl)c3Cl)CC2)c1 |
| 80 | CNC(=O)c1cc(OCCCCN2CCN(c3cccc4sccc34)CC2)ccc1F |
| 1400 | CNC(=O)c1cc(C)cc(OCCCCN2CCN(c3cccc(Cl)c3Cl)CC2)c1 |
| 720 | CNC(=O)c1cccc(OCCCCN2CCN(c3cccc(Cl)c3Cl)CC2)c1OC |
| 1100 | NC(=O)c1cccc(OCCCCN2CCN(c3cccc(Cl)c3Cl)CC2)c1 |
| 494 | CNC(=O)c1cc(OCCCCN2CCN(c3cccc(Cl)c3Cl)CC2)cc(C(C)=O)c1 |
| 1050 | CC(=O)Nc1cccc(OCCCCN2CCN(c3cccc(Cl)c3Cl)CC2)c1 |
| 860 | CNC(=O)c1cccc(OCCCCN2CCN(c3cccc(Cl)c3Cl)CC2)c1C |
| 46 | CNC(=O)c1cccc(OCCCCN2CCC(c3noc4cc(F)ccc34)CC2)c1 |
| 35 | CNC(=O)c1cc(OCCCCN2CCN(c3nsc4ccccc34)CC2)ccc1F |
| 15 | CNC(=O)c1cc(OCCCCN2CCC(c3noc4cc(F)ccc34)CC2)ccc1F |

Target: T3, 5-hydroxytryptamine receptor 1A (Homo sapiens, UniProt P08908)
T3 sequence (P08908 whole entry): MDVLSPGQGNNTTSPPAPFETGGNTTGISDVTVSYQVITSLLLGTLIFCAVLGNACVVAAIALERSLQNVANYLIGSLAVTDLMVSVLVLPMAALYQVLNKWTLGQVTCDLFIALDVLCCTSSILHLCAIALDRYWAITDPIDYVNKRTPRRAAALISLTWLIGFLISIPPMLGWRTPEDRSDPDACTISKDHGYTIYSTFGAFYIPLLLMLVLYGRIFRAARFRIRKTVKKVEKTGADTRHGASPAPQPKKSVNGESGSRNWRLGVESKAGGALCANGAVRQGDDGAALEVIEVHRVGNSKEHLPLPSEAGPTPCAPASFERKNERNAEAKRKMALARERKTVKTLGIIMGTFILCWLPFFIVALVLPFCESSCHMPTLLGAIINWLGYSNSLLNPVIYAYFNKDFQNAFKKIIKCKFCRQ
Test: Agonistic activity at human 5-HT1A receptor measured after 60 mins by Ultra Lance cAMP assay
Type: functional
Details: not given

| EC50 [nM] | SMILES |
| --- | --- |
| 309 | CNC(=O)c1ccccc1OCCCCN1CCN(c2cccc(Cl)c2Cl)CC1 |
| 122 | CNC(=O)c1ccc(OCCCCN2CCN(c3cccc(Cl)c3Cl)CC2)cc1 |
| 464 | CCCCCNC(=O)c1cccc(OCCCCN2CCN(c3cccc(Cl)c3Cl)CC2)c1 |
| 6 | CNC(=O)c1cc(OCCCCN2CCN(c3cccc4sccc34)CC2)ccc1F |
| 97.2 | CNC(=O)c1cc(C)cc(OCCCCN2CCN(c3cccc(Cl)c3Cl)CC2)c1 |
| 120 | CNC(=O)c1cccc(OCCCCN2CCN(c3cccc(Cl)c3Cl)CC2)c1OC |
| 26 | NC(=O)c1cccc(OCCCCN2CCN(c3cccc(Cl)c3Cl)CC2)c1 |
| 137 | CNC(=O)c1cc(OCCCCN2CCN(c3cccc(Cl)c3Cl)CC2)cc(C(C)=O)c1 |
| > 100 | CC(=O)Nc1cccc(OCCCCN2CCN(c3cccc(Cl)c3Cl)CC2)c1 |
| 122 | CNC(=O)c1cccc(OCCCCN2CCN(c3cccc(Cl)c3Cl)CC2)c1C |
| 13 | CNC(=O)c1cccc(OCCCCN2CCC(c3noc4cc(F)ccc34)CC2)c1 |
| 2.7 | CNC(=O)c1cc(OCCCCN2CCN(c3nsc4ccccc34)CC2)ccc1F |
| 13 | CNC(=O)c1cc(OCCCCN2CCC(c3noc4cc(F)ccc34)CC2)ccc1F |

System: Mus musculus
Test: Toxicity in ig dosed mouse assessed as induction of catalepsy by horizontal bar method
Type: organism-based
Details: in vivo, po

| SMILES | ED50 [mg/kg] |
| --- | --- |
| CNC(=O)c1cccc(OCCCCN2CCC(c3noc4cc(F)ccc34)CC2)c1 | 6.76 |
| CNC(=O)c1cc(OCCCCN2CCC(c3noc4cc(F)ccc34)CC2)ccc1F | 7.04 |

System: Mus musculus
Test: Toxicity in mouse assessed as induction of sedation at 10 mg/kg, ip administered 45 mins prior testing measured after 60 mins
Type: organism-based
Details: in vivo, 1 h

| SMILES | Activity |
| --- | --- |
| CNC(=O)c1cccc(OCCCCN2CCC(c3noc4cc(F)ccc34)CC2)c1 | Toxic |
| CNC(=O)c1cc(OCCCCN2CCC(c3noc4cc(F)ccc34)CC2)ccc1F | Toxic |

System: Mus musculus
Test: Toxicity in mouse assessed as induction of sedation at 1 mg/kg, ip administered 45 mins prior testing measured after 60 mins
Type: organism-based
Details: in vivo, 1 h

| SMILES | Activity |
| --- | --- |
| CNC(=O)c1cccc(OCCCCN2CCC(c3noc4cc(F)ccc34)CC2)c1 | Non-toxic |
| CNC(=O)c1cc(OCCCCN2CCC(c3noc4cc(F)ccc34)CC2)ccc1F | Non-toxic |

Target: D(2) dopamine receptor (Homo sapiens, UniProt P14416)
Sequence (P14416 whole entry): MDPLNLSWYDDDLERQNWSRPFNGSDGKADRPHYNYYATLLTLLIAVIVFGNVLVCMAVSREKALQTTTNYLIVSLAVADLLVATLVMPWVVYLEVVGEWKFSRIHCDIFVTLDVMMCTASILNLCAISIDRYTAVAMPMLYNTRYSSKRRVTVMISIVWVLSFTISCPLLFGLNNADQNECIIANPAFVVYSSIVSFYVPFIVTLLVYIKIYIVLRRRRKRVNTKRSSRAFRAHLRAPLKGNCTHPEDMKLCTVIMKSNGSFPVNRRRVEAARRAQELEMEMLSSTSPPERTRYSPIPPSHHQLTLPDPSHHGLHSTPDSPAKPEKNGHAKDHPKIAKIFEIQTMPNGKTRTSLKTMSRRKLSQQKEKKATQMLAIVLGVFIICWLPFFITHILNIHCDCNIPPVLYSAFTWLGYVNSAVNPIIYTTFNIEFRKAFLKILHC
Test: Antagonistic activity at human dopamine D2 receptor measured after 60 mins by Ultra Lance cAMP assay
Type: functional
Details: not given

| IC50 [nM] | SMILES |
| --- | --- |
| 167 | CNC(=O)c1ccccc1OCCCCN1CCN(c2cccc(Cl)c2Cl)CC1 |
| 70 | CNC(=O)c1ccc(OCCCCN2CCN(c3cccc(Cl)c3Cl)CC2)cc1 |
| 16.8 | CCCCCNC(=O)c1cccc(OCCCCN2CCN(c3cccc(Cl)c3Cl)CC2)c1 |
| 43 | CNC(=O)c1cc(OCCCCN2CCN(c3cccc4sccc34)CC2)ccc1F |
| 89.8 | CNC(=O)c1cc(C)cc(OCCCCN2CCN(c3cccc(Cl)c3Cl)CC2)c1 |
| 202 | CNC(=O)c1cccc(OCCCCN2CCN(c3cccc(Cl)c3Cl)CC2)c1OC |
| 37.7 | CNC(=O)c1cc(OCCCCN2CCN(c3cccc(Cl)c3Cl)CC2)cc(C(C)=O)c1 |
| 98.4 | CC(=O)Nc1cccc(OCCCCN2CCN(c3cccc(Cl)c3Cl)CC2)c1 |
| 3600 | CNC(=O)c1cccc(OCCCCN2CCN(c3cccc(Cl)c3Cl)CC2)c1C |
| 8.5 | CNC(=O)c1cccc(OCCCCN2CCC(c3noc4cc(F)ccc34)CC2)c1 |
| 12 | CNC(=O)c1cc(OCCCCN2CCN(c3nsc4ccccc34)CC2)ccc1F |
| 23 | CNC(=O)c1cc(OCCCCN2CCC(c3noc4cc(F)ccc34)CC2)ccc1F |

System: not listed separately
Test: in vivo
Details: mouse, po
Description: Therapeutic index, ratio of ED50 for toxicity in orally dosed mouse by catalepsy test to ED50 for antipsychotic activity in mouse

| SMILES | selectivity ratio |
| --- | --- |
| CNC(=O)c1cccc(OCCCCN2CCC(c3noc4cc(F)ccc34)CC2)c1 | 113 |
